Where two headings read alike, the source gives them in different places. Numbered stars: 1 amine (or outer) side, 2 acyl side, 3 side chain; on linkers, the order of the positions; unused ones are H or OH. Ends that are not written are not given here. Peptide text beside a SMILES is read from it. Cysteamide = C(CS[*:3])N[*:1]
Columns and labels:
HS-68 and Hela cells = experiment: Toxicity of CADY variants, MTT cell viability assay (Table 1); assay type: cell-based; details: for toxicity: at concentration of 100 µM
Method: The toxicity of CADY peptides has been investigated on different cell lines. Cells were incubated in the presence of increasing concentrations of CADY (from 0.1 µM to 1 mM) for 12 hrs and cell viability was estimated using MTT assay.

[1] = target: short 17-residues peptide (cargo used with CADY-2); experiment: steady state Trp fluorescence quenching; fixed CADY (0.1 uM) titrated with cargo peptide; quadratic fit
[2] = free peptide, MTT, read-out: free EC50

Molecule: CC(C)C[C@H](NC(=O)CN)C(=O)N[C@@H](Cc1c[nH]c2ccccc12)C(=O)N[C@@H](CCCNC(=N)N)C(=O)N[C@@H](C)C(=O)N[C@@H](CC(C)C)C(=O)N[C@@H](Cc1c[nH]c2ccccc12)C(=O)N[C@@H](CCCNC(=N)N)C(=O)N[C@@H](C)C(=O)N[C@@H](CC(C)C)C(=O)N[C@@H](Cc1c[nH]c2ccccc12)C(=O)N[C@@H](CCCNC(=N)N)C(=O)N[C@@H](CO)C(=O)N[C@@H](CC(C)C)C(=O)N[C@@H](Cc1c[nH]c2ccccc12)C(=O)N[C@@H](CCCCN)C(=O)N[C@@H](CC(C)C)C(=O)N[C@@H](CCCCN)C(=O)N[C@@H](CCCNC(=N)N)C(=O)N[C@@H](CCCCN)C(=O)N[C@H](C(=O)NCCS)C(C)C [CADY-1b] (HELM PEPTIDE1{G.L.W.R.A.L.W.R.A.L.W.R.S.L.W.K.L.K.R.K.V.[SCCN[*:1]]}$$$$V2.0)
- EC50 (HS-68 and Hela cells; free peptide, MTT, listed as CADY-2d, read-out: free EC50): 380 µM
- EC50 (HS-68 and Hela cells; [2]): 500 µM

Molecule: CC(C)C[C@H](NC(=O)CN)C(=O)N[C@@H](Cc1c[nH]c2ccccc12)C(=O)N[C@@H](CCCNC(=N)N)C(=O)N[C@@H](C)C(=O)N[C@@H](CC(C)C)C(=O)N[C@@H](Cc1c[nH]c2ccccc12)C(=O)N[C@@H](CCCNC(=N)N)C(=O)NCC(=O)N[C@@H](CC(C)C)C(=O)N[C@@H](CCCNC(=N)N)C(=O)N[C@@H](CO)C(=O)N[C@@H](CC(C)C)C(=O)N[C@@H](Cc1c[nH]c2ccccc12)C(=O)N[C@@H](CCCCN)C(=O)N[C@@H](CCCCN)C(=O)N[C@@H](CCCCN)C(=O)N[C@@H](CCCNC(=N)N)C(=O)N[C@@H](CCCCN)C(=O)N[C@H](C(=O)NCCS)C(C)C [CADY-1e] (HELM PEPTIDE1{G.L.W.R.A.L.W.R.G.L.R.S.L.W.K.K.K.R.K.V.[SCCN[*:1]]}$$$$V2.0)
- EC50 (HS-68 and Hela cells; [2]): 340 µM

Molecule: CC(C)C[C@H](NC(=O)CN)C(=O)N[C@@H](Cc1c[nH]c2ccccc12)C(=O)N[C@@H](CCCNC(=N)N)C(=O)N[C@@H](C)C(=O)N[C@@H](CC(C)C)C(=O)N[C@@H](Cc1c[nH]c2ccccc12)C(=O)N[C@@H](CCCNC(=N)N)C(=O)N[C@@H](CC(C)C)C(=O)N[C@@H](CC(C)C)C(=O)N[C@@H](CCCNC(=N)N)C(=O)N[C@@H](CO)C(=O)N[C@@H](CC(C)C)C(=O)N[C@@H](Cc1c[nH]c2ccccc12)C(=O)N[C@@H](CCCNC(=N)N)C(=O)N[C@@H](CC(C)C)C(=O)N[C@@H](CC(C)C)C(=O)N[C@@H](Cc1c[nH]c2ccccc12)C(=O)N[C@@H](CO)C(=O)N[C@@H](CCC(N)=O)C(=O)N1CCC[C@H]1C(=O)N[C@@H](CCCCN)C(=O)N[C@@H](CCCCN)C(=O)N[C@@H](CCCCN)C(=O)N[C@@H](CCCNC(=N)N)C(=O)N[C@@H](CCCCN)C(=O)N[C@H](C(=O)NCCS)C(C)C [CADY-2e] (HELM PEPTIDE1{G.L.W.R.A.L.W.R.L.L.R.S.L.W.R.L.L.W.S.Q.P.K.K.K.R.K.V.[SCCN[*:1]]}$$$$V2.0)
- EC50 (HS-68 and Hela cells; [2]): 430 µM

Molecule: WEAKLAKALAKALAKHLAKALAKALKACEA [KALA, reference compound]
- toxicity (HS-68 and Hela cells): > 70%

Molecule: CC(=O)NCC(=O)N[C@@H](CC(C)C)C(=O)N[C@@H](Cc1c[nH]c2ccccc12)C(=O)N[C@@H](CCCNC(=N)N)C(=O)N[C@@H](C)C(=O)N[C@@H](CC(C)C)C(=O)N[C@@H](Cc1c[nH]c2ccccc12)C(=O)N[C@@H](CCCNC(=N)N)C(=O)N[C@@H](CC(C)C)C(=O)N[C@@H](CC(C)C)C(=O)N[C@@H](CCCNC(=N)N)C(=O)N[C@@H](CO)C(=O)N[C@@H](CC(C)C)C(=O)N[C@@H](Cc1c[nH]c2ccccc12)C(=O)N[C@@H](CCCNC(=N)N)C(=O)N[C@@H](CC(C)C)C(=O)N[C@@H](CC(C)C)C(=O)N[C@@H](Cc1c[nH]c2ccccc12)C(=O)N[C@@H](CCCCN)C(=O)N[C@@H](C)C(=O)NCCSS[C@H]1CC[C@@]2(C)C(=CC[C@H]3[C@@H]4CC[C@H]([C@H](C)CCCC(C)C)[C@@]4(C)CC[C@@H]32)C1 [CADY-S2] (HELM PEPTIDE1{[ac].G.L.W.R.A.L.W.R.L.L.R.S.L.W.R.L.L.W.K.A.[CC(C)CCC[C@@H](C)[C@H]1CC[C@H]2[C@@H]3CC=C4C[C@@H](SSCCN[*:1])CC[C@]4(C)[C@H]3CC[C@]12C]}$$$$V2.0; N-terminus assumed)
- EC50 (HS-68 and Hela cells; 12 h): 250 µM

Molecule: CC(C)C[C@H](NC(=O)CN)C(=O)N[C@@H](Cc1c[nH]c2ccccc12)C(=O)N[C@@H](CCCNC(=N)N)C(=O)N[C@@H](C)C(=O)N[C@@H](CC(C)C)C(=O)N[C@@H](Cc1c[nH]c2ccccc12)C(=O)N[C@@H](CCCNC(=N)N)C(=O)NCC(=O)N[C@@H](CC(C)C)C(=O)N[C@@H](CCCNC(=N)N)C(=O)N[C@@H](CO)C(=O)N[C@@H](CC(C)C)C(=O)N[C@@H](Cc1c[nH]c2ccccc12)C(=O)N[C@@H](CCCCN)C(=O)N[C@@H](CC(C)C)C(=O)N[C@@H](CCCCN)C(=O)N[C@@H](CCCNC(=N)N)C(=O)N[C@@H](CCCCN)C(=O)N[C@H](C(=O)NCCS)C(C)C [CADY-1d] (HELM PEPTIDE1{G.L.W.R.A.L.W.R.G.L.R.S.L.W.K.L.K.R.K.V.[SCCN[*:1]]}$$$$V2.0)
- EC50 (HS-68 and Hela cells; [2]): 500 µM

Molecule: CC(C)C[C@H](NC(=O)CN)C(=O)N[C@@H](Cc1c[nH]c2ccccc12)C(=O)N[C@@H](CCCNC(=N)N)C(=O)N[C@@H](C)C(=O)N[C@@H](CC(C)C)C(=O)N[C@@H](Cc1c[nH]c2ccccc12)C(=O)N[C@@H](CCCNC(=N)N)C(=O)N[C@@H](C)C(=O)N[C@@H](CC(C)C)C(=O)N[C@@H](Cc1c[nH]c2ccccc12)C(=O)N[C@@H](CCCNC(=N)N)C(=O)N[C@@H](CO)C(=O)N[C@@H](CC(C)C)C(=O)N[C@@H](Cc1c[nH]c2ccccc12)C(=O)N[C@@H](CCCCN)C(=O)N[C@@H](CCCCN)C(=O)N[C@@H](CCCCN)C(=O)N[C@@H](CCCNC(=N)N)C(=O)N[C@@H](CCCCN)C(=O)N[C@H](C(=O)NCCS)C(C)C [CADY-2c] (HELM PEPTIDE1{G.L.W.R.A.L.W.R.A.L.W.R.S.L.W.K.K.K.R.K.V.[SCCN[*:1]]}$$$$V2.0)
- EC50 (HS-68 and Hela cells; [2]): 340 µM

Molecule: WEAALAEALAEALAEHLAEALAEALEALAA [GALA, reference compound]
- toxicity (HS-68 and Hela cells): > 70%

Molecule: CC(C)C[C@H](NC(=O)CN)C(=O)N[C@@H](Cc1c[nH]c2ccccc12)C(=O)N[C@@H](CCCNC(=N)N)C(=O)N[C@@H](C)C(=O)N[C@@H](CC(C)C)C(=O)N[C@@H](Cc1c[nH]c2ccccc12)C(=O)N[C@@H](CCCNC(=N)N)C(=O)N[C@@H](C)C(=O)N[C@@H](CC(C)C)C(=O)N[C@@H](CCCNC(=N)N)C(=O)N[C@@H](CO)C(=O)N[C@@H](CC(C)C)C(=O)N[C@@H](Cc1c[nH]c2ccccc12)C(=O)N[C@@H](CCCCN)C(=O)N[C@@H](CC(C)C)C(=O)N[C@@H](CCCCN)C(=O)N[C@@H](CCCNC(=N)N)C(=O)N[C@@H](CCCCN)C(=O)N[C@H](C(=O)NCCS)C(C)C [CADY-1c] (HELM PEPTIDE1{G.L.W.R.A.L.W.R.A.L.R.S.L.W.K.L.K.R.K.V.[SCCN[*:1]]}$$$$V2.0)
- EC50 (HS-68 and Hela cells; [2]): 450 µM

Molecule: CC(=O)NCC(=O)N[C@@H](CC(C)C)C(=O)N[C@@H](Cc1c[nH]c2ccccc12)C(=O)N[C@@H](CCCNC(=N)N)C(=O)N[C@@H](C)C(=O)N[C@@H](CC(C)C)C(=O)N[C@@H](Cc1c[nH]c2ccccc12)C(=O)N[C@@H](CCCNC(=N)N)C(=O)N[C@@H](C)C(=O)N[C@@H](CC(C)C)C(=O)N[C@@H](Cc1c[nH]c2ccccc12)C(=O)N[C@@H](CCCNC(=N)N)C(=O)N[C@@H](CO)C(=O)N[C@@H](CC(C)C)C(=O)N[C@@H](Cc1c[nH]c2ccccc12)C(=O)N[C@@H](CCCCN)C(=O)N[C@@H](CC(C)C)C(=O)N[C@@H](CCCCN)C(=O)N[C@@H](Cc1c[nH]c2ccccc12)C(=O)N[C@@H](CCCCN)C(=O)N[C@H](C(=O)NCCS)C(C)C [CADY-2] (HELM PEPTIDE1{[ac].G.L.W.R.A.L.W.R.A.L.W.R.S.L.W.K.L.K.W.K.V.[SCCN[*:1]]}$$$$V2.0)
- EC50 (HS-68 and Hela cells; [2]): 230 µM

Molecule: CC(C)C[C@H](NC(=O)CN)C(=O)N[C@@H](Cc1c[nH]c2ccccc12)C(=O)N[C@@H](CCCNC(=N)N)C(=O)N[C@@H](C)C(=O)N[C@@H](CC(C)C)C(=O)N[C@@H](Cc1c[nH]c2ccccc12)C(=O)N[C@@H](CCCNC(=N)N)C(=O)N[C@@H](C)C(=O)N[C@@H](CC(C)C)C(=O)N[C@@H](Cc1c[nH]c2ccccc12)C(=O)N[C@@H](CCCNC(=N)N)C(=O)N[C@@H](CO)C(=O)N[C@@H](CC(C)C)C(=O)N[C@@H](Cc1c[nH]c2ccccc12)C(=O)N[C@@H](CCCCN)C(=O)N[C@@H](CO)C(=O)N[C@@H](CCCCN)C(=O)N[C@@H](CCCNC(=N)N)C(=O)N[C@@H](CCCCN)C(=O)N[C@H](C(=O)NCCS)C(C)C [CADY-2b] (HELM PEPTIDE1{G.L.W.R.A.L.W.R.A.L.W.R.S.L.W.K.S.K.R.K.V.[SCCN[*:1]]}$$$$V2.0)
- EC50 (HS-68 and Hela cells; [2]): 280 µM

Molecule: Ac-GLWRALWRALWRSLWKLKWKV-Cysteamide [CADY-2 (Ac-…-Cya)]
- Kd [1]: 0.019 µM
- ratio at saturation (cargo/CADY molar ratio) [1]: 0.05

— patent EP1795539B1, “Cell penetrating peptides for intracellular delivery of molecules” (Centre National de la Recherche Scientifique, priority 2005, dated 2007)
